Results from paper PMC8087809 (Cell Death & Disease, 2021).

How the values were obtained:
ARP1 cells = test: CCK-8 cell viability, ARP1; type: cell-based; settings: Homo sapiens, ARP-1; ARP1, 72h
Description: (§1) Cell viability was detected by Cell Counting Kit-8 (CCK-8) (Dojindo Laboratories, Japan). MM cells were seeded on 96-well plates and placed in an incubator for 24 h. After being treated with drugs for another 72 h, cell viability was examined using the CCK-8 reagent. The CellTiter-Glo Luminescent Cell Viability Assay Kit (Promega, USA) was used to determine the viability of CD138^+ cells and PBMCs. For flow cytometry, MM cells were seeded in 6-well plates and placed in an incubator for 24 h. Then, the MM cells were incubated with drugs for another 24 h and collected for flow cytometry analysis. The cell cycle was examined by flow cytometry using a propidium iodide (PI) staining assay kit (BD Biosciences, USA). Cell apoptosis was detected by flow cytometry using the Annexin V/PI Kit (BD Biosciences, USA).
(§2) The Cell Counting Kit-8 (CCK-8) assay was used for cell viability assessment. CCK-8 provided a highly water-soluble tetrazole salt, WST-8, which would produce a water-soluble orange formazan in the presence of dehydrogenase derived from living cells. The OD value was detected at 450 nm with a microplate analyzer to indirectly reflect the number of living cells. […] Among the four patients, patients 1 (Fig. 2E), 2 (Fig. 2F), and 3 (Fig. 2G) were newly diagnosed, and patient 4 (Fig. 2H) had experienced relapse after prior therapies.

[1] = system: MM patient-derived CD138+ cells; test: Viability of MM patient-derived BM CD138+ cells; type: cell-based; settings: Homo sapiens, primary MM cell
Description: Human MM.1S (dexamethasone-sensitive), MM.1R (dexamethasone-resistant), ARP1, and RPMI-8226 MM cell lines were obtained from American Type Culture Collection (ATCC, Rockville, USA) and cultured in RPMI-1640 medium (Gibco-BRL, USA) supplemented with 10% fetal bovine serum (Gibco, USA) and 1% penicillin/streptomycin (Gibco, USA). All the cells are maintained in 5% CO2 at 37 °C and have been tested for mycoplasma contamination. Peripheral blood mononuclear cells (PBMCs) were collected from healthy volunteers. BM mononuclear cells and PBMCs from MM patients were isolated by Ficoll-Hypaque density-gradient separation. CD138^+ cells were isolated from BM mononuclear cells of MM patients using CD138^+ Micro Beads and the Auto MACS magnetic cell sorter (Miltenyi Biotech, Germany). All primary samples were obtained with informed consent from patients with MM or healthy donors according to the Declaration of Helsinki. This study was approved by the Review Committee of the First Affiliated Hospital of Nanjing Medical University.
as §1, §2

[2] = system: NF-κB activity in NF-κB-luc HEK293T cells; test: NF-κB luciferase reporter assay, TNF-α stimulated; settings: Homo sapiens, HEK-293T, read-out: IC50 of NF-κB luciferase activity
Description: The plasmids pcDNA3.1-(+)-NF-κB and pcDNA3.1-(+)-Renilla were mixed with Lipofectamine 2000 (Invitrogen, USA) and then transfected into HEK293T cells (Institute of Biochemistry and Cell Biology, China). […] The activity of NF-κB was examined by the Dual-Luciferase® Reporter Assay System (Promega, USA) as previously described[22].
Activation of NF-κB was determined by luciferase reporter gene assay using stably transfected NF-κB-luc HEK293T cells. The NF-κB signaling pathway was activated by TNF-α stimulation.

six non-proteasomes = test: Non-proteasome substrate-based assay (six non-proteasomes)
Description: A standard substrate-based assay of non-proteasome was performed as described (GenScript, China)[19].

MM patients = settings: carfilzomib-treated MM patients ref 13, 14; cited from earlier work
[3] = system: proteasome CT-L activity in MM.1S cells; test: Proteasome-Glo cell-based assay, CT-L activity in MM.1S cells; settings: read-out: IC50 of cellular proteasome CT-L activity, treated 1 h
Description: (§3) In vitro, the 20S proteasome activity of cells was detected by using the Proteasome-Glo Assay (Promega, USA) either after drug treatment for 4, 24, or 48 h in fresh medium.
(§4) Proteasome activity was measured by the Proteasome-Glo cell-based assay.

MM.1R cells = test: CCK-8 cell viability, MM.1R; type: cell-based; settings: Homo sapiens, 72h
Description: as §1, §2

C57BL/6 mice = test: Cardiotoxicity in C57BL/6 mice (echocardiography, serum enzymes, histopathology); type: in vivo, mouse; settings: 8 mg/kg i.p. every 2 days for 1 week
Description: On day 7, the mice were sacrificed after an echocardiography test to harvest the serum for biochemical estimations. Biochemical estimations, including alanine aminotransferase (ALT), aspartate transaminase (AST), lactic dehydrogenase (LDH), creatine kinase-MB (CK-MB), and creatine kinase (CK), were tested using an autoanalyzer (Siemens, USA). Freshly harvested cardiac tissue was fixed in 4% buffered formalin solution for 24 h and embedded in paraffin wax. Sections ([…] thick) were obtained from each sample and stained with H&E. Histologic observation was performed with a Nikon i55 optical microscope (Nikon Corporation, Japan).
In addition, CT-L activity recovered in a time-dependent manner, as previously discovered in vitro (Fig. 7B). […] The echocardiographic analysis was performed at baseline (day 0) and endpoint (day 7) (Fig. 7D). […] We also examined the levels of CK, CK-MB, LDH, ALT, and AST in the blood serum from the treated mice.

RPMI-8226 cells = test: CCK-8 cell viability, RPMI-8226; type: cell-based; settings: Homo sapiens; RPMI-8226, 72h
Description: as §1, §2

hERG channels = target: T1, hERG channels (Homo sapiens, UniProt Q12809); test: hERG whole-cell patch-clamp, tail current; type: cell-based
T1 construct: expressed in transfected cells; host or cells: HEK293T
Description: The activation of the hERG pathway was detected by the whole-cell patch-clamp technique at room temperature (22 ± 1 °C) using an AXON 200B amplifier through a digitizer (DigiData 1440A, Molecular Devices, USA) controlled by pClamp software (v10.0) as previously described.
Human ether-à-go-go-related gene (hERG) K^+ channels are vital in cardiac repolarization[28],[29]. Drug cardiotoxicity can be partially attributed to hERG channel dysfunction that leads to long QT syndrome and ventricular action potential delay. […] The real-time current was measured during drug treatment. Figure 8A presents the command waveform of the tail-current protocol under voltage-clamp mode.

[4] = system: proteasome CT-L activity in RPMI-8226 cells; test: Proteasome-Glo cell-based assay, CT-L activity in RPMI-8226 cells; settings: read-out: IC50 of cellular proteasome CT-L activity, treated 1 h
Description: as §3, §4

ARP1 xenografts = test: ARP1 xenograft in BALB/c nude mice; type: in vivo, mouse; settings: i.v. 4 mg/kg twice a week
Description: BALB/c nude mice (male, 4–6 weeks old) were purchased from Ziyuan Co., Ltd. (Hangzhou, China). ARP1 cells (1 × 10^6 cells in 100 μl PBS) were injected subcutaneously into the hindquarters of each mouse. […] All mice were observed every 2 days for at least 7 weeks. Tumor growth was assessed by calculating volume according to the following equation: volume = a × b^2/2, where a is the widest length and b is the perpendicular diameter. On the appointed day, fifteen tumor tissue samples were removed from the mice for hematoxylin and eosin (H&E) staining and stained with Ki67 and CD138 antibodies. Investigators were blinded to the group allocation during measuring tumor size, weight, and performing staining. All animal procedures were approved by the Institutional Review Board of the College of Life Science, Nanjing Normal University (Approval No. IACUC-20200506).
We next validated the anti-tumor role of D395 in vivo. Human MM cell line ARP1 (1 × 10^6 cells per mouse) were injected subcutaneously into BALB/c nude mice. […] The medication was given twice a week. Tumor size was measured every 3 days (Fig. 5A). […] On the endpoint day, all the mice were sacrificed, and tumors were collected (Fig. 5B, C). […] Tumor tissues were sampled for immunohistochemistry. The tissues were stained for Ki67, a cell proliferation marker, to show tumor growth (Fig. 5E).

MM.1S cells = test: CCK-8 cell viability, MM.1S; type: cell-based; settings: Homo sapiens, MM1.S, 72h
Description: as §1, §2

[5] = system: proteasome CT-L activity in MM.1R cells; test: Proteasome-Glo cell-based assay, CT-L activity in MM.1R cells; settings: read-out: IC50 of cellular proteasome CT-L activity, treated 1 h
Description: as §3, §4

RPMI-8226 BTZ-DR cells = test: Annexin V flow cytometry in bortezomib-resistant cells; type: cell-based, human
Description: as §1
It is known that drug resistance limits the application of proteasome inhibitors in clinical treatment.

T1 sequence (Q12809 whole entry): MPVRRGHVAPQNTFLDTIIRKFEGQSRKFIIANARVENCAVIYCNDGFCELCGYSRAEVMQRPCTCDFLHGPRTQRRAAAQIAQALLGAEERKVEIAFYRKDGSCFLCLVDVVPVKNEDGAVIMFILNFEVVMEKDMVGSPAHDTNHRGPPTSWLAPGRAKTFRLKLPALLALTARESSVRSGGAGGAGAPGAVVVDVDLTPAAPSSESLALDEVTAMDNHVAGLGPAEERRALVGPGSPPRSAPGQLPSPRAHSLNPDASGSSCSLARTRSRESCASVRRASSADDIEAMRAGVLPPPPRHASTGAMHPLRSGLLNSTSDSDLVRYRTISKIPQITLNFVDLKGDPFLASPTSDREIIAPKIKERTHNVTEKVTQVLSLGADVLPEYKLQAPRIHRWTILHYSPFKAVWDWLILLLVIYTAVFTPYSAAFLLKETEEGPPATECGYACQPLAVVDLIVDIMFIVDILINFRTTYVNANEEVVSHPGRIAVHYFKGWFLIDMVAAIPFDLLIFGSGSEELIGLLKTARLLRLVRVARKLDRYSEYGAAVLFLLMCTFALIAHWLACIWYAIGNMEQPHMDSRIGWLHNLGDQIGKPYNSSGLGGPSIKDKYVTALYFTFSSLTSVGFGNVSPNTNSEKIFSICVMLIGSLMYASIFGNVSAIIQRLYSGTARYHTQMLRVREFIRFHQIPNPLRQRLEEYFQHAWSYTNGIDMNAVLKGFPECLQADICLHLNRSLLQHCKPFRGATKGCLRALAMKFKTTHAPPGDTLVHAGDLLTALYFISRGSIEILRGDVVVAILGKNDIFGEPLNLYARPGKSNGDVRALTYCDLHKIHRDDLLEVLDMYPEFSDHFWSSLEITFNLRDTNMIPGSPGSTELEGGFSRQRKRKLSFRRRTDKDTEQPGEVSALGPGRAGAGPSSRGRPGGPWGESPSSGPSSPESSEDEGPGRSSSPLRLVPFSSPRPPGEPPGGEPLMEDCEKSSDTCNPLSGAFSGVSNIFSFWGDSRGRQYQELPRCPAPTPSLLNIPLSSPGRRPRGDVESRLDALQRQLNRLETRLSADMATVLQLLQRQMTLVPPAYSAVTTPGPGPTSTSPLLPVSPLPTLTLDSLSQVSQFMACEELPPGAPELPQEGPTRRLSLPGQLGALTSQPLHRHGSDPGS

CC(C)C[C@H](NC(=O)[C@H](CCc1ccccc1)NC(=O)CN1CCOCC1)C(=O)N[C@@H](Cc1ccccc1)C(=O)N[C@@H](CC(C)C)C(=O)[C@@]1(C)CO1 [Carfilzomib]
IC50 (ARP1 cells): 0.0356 ± 0.0051 µM
IC50 ([1]; 24 h, patient 1 (newly diagnosed)): 0.0565 ± 0.0025 µM
IC50 ([1]; 24 h, patient 2 (newly diagnosed)): 0.354 ± 0.0194 µM
IC50 ([1]; 24 h, patient 3 (newly diagnosed)): 0.444 ± 0.048 µM
IC50 ([1]; 24 h, patient 4 (relapsed)): 0.038 ± 0.0058 µM
IC50 ([1]; 36 h, patient 2 (newly diagnosed)): 0.339 ± 0.0228 µM
IC50 ([1]; 36 h, patient 3 (newly diagnosed)): 0.288 ± 0.0195 µM
IC50 [2]: 0.0357 µM
Inhibitory effect on six non-proteasomes (six non-proteasomes): neither carfilzomib nor D395 exerted an inhibitory effect
Incidence of cardiotoxicity (MM patients): 5–10%
IC50 [3]: 0.0138 µM
IC50 (MM.1R cells): 0.011 ± 0.0009 µM
Heart histological analysis (H&E) (C57BL/6 mice): myocardial degeneration and myocardial fiber damage with cytoplasmic vacuoles
FS% and EF% (echocardiography) (C57BL/6 mice; day 7): the FS% and EF% decreased in both the carfilzomib and D395 groups
Serum CK-MB and LDH levels (C57BL/6 mice; day 7): increased in the carfilzomib group
LVEDD, LVESD, LVEDV, LVESV (C57BL/6 mice; versus control group): No significant differences in LVEDD, LVESD, LVEDV, or LVESV
IC50 (RPMI-8226 cells): 0.0135 ± 0.0019 µM
IC50 (hERG channels): 25.7 µM
IC50 [4]: 0.0258 µM
Tumor growth (ARP1 xenografts; ARP1 xenograft): grew slower than those in the control group
Weight of the mice (ARP1 xenografts; treatment period): the weight of the mice did not change
CT-L, C-L, and T-L activities in tumor samples (ARP1 xenografts; tumors at endpoint): lower in the carfilzomib and D395 groups than in the control group
IC50 (MM.1S cells): 0.007 ± 0.0009 µM
IC50 [5]: 0.0181 µM

CC(C)C[C@H](NC(=O)[C@H](Cc1ccccc1)NC(=O)c1cnccn1)B(O)O [bortezomib, Bortezomib]
Apoptotic population / cell death (RPMI-8226 BTZ-DR cells): lower than that of the RPMI-8226 WT group
